Calls of active or inactive are those of the source. The rule behind the calls is not given here.
Key:
[1] = Clearance in mouse at 1 mg/kg, iv; format: ADME, organism-based; conditions: in vivo
RPMI-8226 [2] = experiment: Induction of apoptosis in human RPMI-8226 cells assessed as viable cells at 0.5 uM incubated for 24 hrs by Annexin V-FITC/PI staining based flow cytometry (reference value: 90.98 %); format: functional; conditions: read-out: Activity
Histone deacetylase 5 = Histone deacetylase 5 (Homo sapiens, UniProt Q9UQL6); experiment: Inhibition of HDAC5 (unknown origin) preincubated for 10 mins followed by substrate addition by fluorescence based assay
Histone deacetylase 5, sequence (Q9UQL6 whole entry): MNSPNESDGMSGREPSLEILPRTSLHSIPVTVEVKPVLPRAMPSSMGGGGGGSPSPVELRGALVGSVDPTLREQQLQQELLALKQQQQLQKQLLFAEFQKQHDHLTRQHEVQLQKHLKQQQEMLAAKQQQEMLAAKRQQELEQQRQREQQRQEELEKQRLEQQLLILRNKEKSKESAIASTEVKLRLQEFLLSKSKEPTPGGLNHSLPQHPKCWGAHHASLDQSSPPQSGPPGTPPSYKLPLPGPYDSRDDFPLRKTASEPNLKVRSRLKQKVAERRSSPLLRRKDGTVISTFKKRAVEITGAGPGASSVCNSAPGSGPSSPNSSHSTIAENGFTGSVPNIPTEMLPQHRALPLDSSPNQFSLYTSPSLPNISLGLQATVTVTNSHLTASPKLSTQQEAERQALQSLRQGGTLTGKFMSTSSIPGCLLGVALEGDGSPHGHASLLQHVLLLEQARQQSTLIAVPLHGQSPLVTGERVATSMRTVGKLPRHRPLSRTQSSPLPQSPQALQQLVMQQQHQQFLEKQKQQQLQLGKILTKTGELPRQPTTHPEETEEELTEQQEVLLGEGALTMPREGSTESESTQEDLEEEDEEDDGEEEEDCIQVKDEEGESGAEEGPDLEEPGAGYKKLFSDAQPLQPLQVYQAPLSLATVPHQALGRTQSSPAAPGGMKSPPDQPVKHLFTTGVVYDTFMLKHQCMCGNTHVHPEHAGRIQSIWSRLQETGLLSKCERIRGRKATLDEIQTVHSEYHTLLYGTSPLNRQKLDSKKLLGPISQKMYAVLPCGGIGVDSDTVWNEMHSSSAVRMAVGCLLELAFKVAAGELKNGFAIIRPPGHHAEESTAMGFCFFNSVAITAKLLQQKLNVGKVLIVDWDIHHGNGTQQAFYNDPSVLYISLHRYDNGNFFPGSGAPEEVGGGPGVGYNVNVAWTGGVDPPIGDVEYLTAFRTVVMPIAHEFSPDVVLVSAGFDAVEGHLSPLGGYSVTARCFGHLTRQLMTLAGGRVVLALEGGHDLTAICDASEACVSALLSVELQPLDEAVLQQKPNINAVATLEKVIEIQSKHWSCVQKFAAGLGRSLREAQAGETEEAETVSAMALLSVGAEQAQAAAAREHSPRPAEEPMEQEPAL

SGC-7901 = experiment: Cytotoxicity against human SGC-7901 cells assessed as inhibition of cell viability incubated for 24 hrs by CCK8 assay; format: functional, cell-based; conditions: SGC-7901, 24 h
RPMI-8226 [3] = experiment: Induction of cell cycle arrest at G1 phase in human RPMI-8226 cells at 0.1 uM incubated for 24 hrs by PI staining based flow cytometry (reference value: 19.2 %); format: functional
RPMI-8226 [4] = experiment: Induction of apoptosis in human RPMI-8226 cells assessed as necrotic cells at 0.5 uM incubated for 24 hrs by Annexin V-FITC/PI staining based flow cytometry (reference value: 0.90 %); format: functional
[5] = Tmax in mouse at 10 mg/kg, po; format: ADME, organism-based; conditions: in vivo
RPMI-8226 [6] = experiment: Induction of apoptosis in human RPMI-8226 cells assessed as necrotic cells at 2.5 uM incubated for 24 hrs by Annexin V-FITC/PI staining based flow cytometry (reference value: 0.90 %); format: functional
[7] = Half life in mouse at 1 mg/kg, iv; format: ADME, organism-based; conditions: in vivo
RPMI-8226 [8] = experiment: Effect on Ac-H4 expression in human RPMI-8226 cells at 0.1 to 2.5 uM incubated for 24 hrs by Western blot analysis; format: functional, cell-based; conditions: dose 0.1-2.5 µM
RPMI-8226 [9] = experiment: Induction of apoptosis in human RPMI-8226 cells assessed as late apoptotic cells at 0.5 uM incubated for 24 hrs by Annexin V-FITC/PI staining based flow cytometry (reference value: 2.78 %); format: functional
RPMI-8226 [10] = experiment: Induction of apoptosis in human RPMI-8226 cells assessed as early apoptotic cells at 0.5 uM incubated for 24 hrs by Annexin V-FITC/PI staining based flow cytometry (reference value: 5.34 %); format: functional
[11] = Half life in mouse at 10 mg/kg, po; format: ADME, organism-based; conditions: in vivo
Histone deacetylase 8 = molecular target: T1, Histone deacetylase 8 (Homo sapiens, UniProt Q9BY41); experiment: Inhibition of HDAC8 (unknown origin) preincubated for 10 mins followed by substrate addition by fluorescence based assay
T1 sequence (Q9BY41 whole entry): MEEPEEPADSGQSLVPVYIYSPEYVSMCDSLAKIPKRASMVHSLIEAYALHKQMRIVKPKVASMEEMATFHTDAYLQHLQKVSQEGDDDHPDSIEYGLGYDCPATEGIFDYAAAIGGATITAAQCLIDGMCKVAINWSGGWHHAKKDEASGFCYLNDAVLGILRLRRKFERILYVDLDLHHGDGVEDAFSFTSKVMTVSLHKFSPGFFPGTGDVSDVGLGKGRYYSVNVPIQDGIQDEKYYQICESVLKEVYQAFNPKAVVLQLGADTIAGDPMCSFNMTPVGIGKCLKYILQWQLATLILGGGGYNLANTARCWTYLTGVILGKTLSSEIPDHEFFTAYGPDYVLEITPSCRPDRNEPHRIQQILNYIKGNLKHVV

RPMI-8226 [12] = experiment: Induction of apoptosis in human RPMI-8226 cells assessed as early apoptotic cells at 0.1 uM incubated for 24 hrs by Annexin V-FITC/PI staining based flow cytometry (reference value: 5.34 %); format: functional
RPMI-8226 [13] = experiment: Induction of apoptosis in human RPMI-8226 cells assessed as increase in p53 expression at 0.1 to 2.5 uM incubated for 24 hrs by Western blot analysis; format: functional, cell-based; conditions: dose 0.1-2.5 µM
RPMI-8226 [14] = experiment: Induction of apoptosis in human RPMI-8226 cells assessed as viable cells at 2.5 uM incubated for 24 hrs by Annexin V-FITC/PI staining based flow cytometry (reference value: 90.98 %); format: functional; conditions: read-out: Activity
RPMI-8226 [15] = experiment: Upregulation of Ac-H3 expression in human RPMI-8226 cells at 0.1 to 0.5 uM incubated for 24 hrs by Western blot analysis; format: functional, cell-based; conditions: dose 0.1-0.5 µM
[16] = Toxicity in Balb/c nude mouse xenografted with human RPMI-8226 cells assessed as adverse effect on serum AST level at 10 to 40 mg/kg, po qd for 21 days administered consecutively; format: organism-based; conditions: in vivo, 504 h, dose 10-40 mg/kg, time 21 day
Histone deacetylase 4 = Histone deacetylase 4 (Homo sapiens, UniProt P56524); experiment: Inhibition of HDAC4 (unknown origin) preincubated for 10 mins followed by substrate addition by fluorescence based assay
Histone deacetylase 4, sequence (P56524 whole entry): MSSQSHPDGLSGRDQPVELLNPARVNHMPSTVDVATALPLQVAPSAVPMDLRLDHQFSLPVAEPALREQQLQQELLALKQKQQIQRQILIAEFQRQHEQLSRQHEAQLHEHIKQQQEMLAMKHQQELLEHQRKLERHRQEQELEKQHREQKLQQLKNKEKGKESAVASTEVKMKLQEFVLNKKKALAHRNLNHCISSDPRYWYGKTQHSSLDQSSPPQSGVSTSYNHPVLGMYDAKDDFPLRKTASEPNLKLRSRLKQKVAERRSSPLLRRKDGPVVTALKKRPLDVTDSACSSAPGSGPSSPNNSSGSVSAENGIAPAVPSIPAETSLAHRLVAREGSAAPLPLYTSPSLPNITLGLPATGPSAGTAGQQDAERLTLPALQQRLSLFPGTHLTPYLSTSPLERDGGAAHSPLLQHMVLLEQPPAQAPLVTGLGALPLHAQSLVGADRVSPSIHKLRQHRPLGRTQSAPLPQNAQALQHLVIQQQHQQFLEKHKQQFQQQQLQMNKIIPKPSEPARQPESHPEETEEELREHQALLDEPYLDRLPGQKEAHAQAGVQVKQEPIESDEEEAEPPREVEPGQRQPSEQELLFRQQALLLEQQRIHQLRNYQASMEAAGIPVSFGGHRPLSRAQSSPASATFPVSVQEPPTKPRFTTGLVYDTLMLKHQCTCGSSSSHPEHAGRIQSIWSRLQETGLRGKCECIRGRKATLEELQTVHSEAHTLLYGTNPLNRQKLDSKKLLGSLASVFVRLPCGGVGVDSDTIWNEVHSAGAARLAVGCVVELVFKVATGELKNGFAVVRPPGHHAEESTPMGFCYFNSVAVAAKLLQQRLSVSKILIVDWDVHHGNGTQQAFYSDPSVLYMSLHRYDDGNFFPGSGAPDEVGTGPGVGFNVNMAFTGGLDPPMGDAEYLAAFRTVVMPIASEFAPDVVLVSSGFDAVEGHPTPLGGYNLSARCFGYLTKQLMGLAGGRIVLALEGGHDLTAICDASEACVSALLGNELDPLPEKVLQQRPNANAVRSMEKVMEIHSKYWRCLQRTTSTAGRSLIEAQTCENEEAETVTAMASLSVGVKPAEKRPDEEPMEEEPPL

HCCLM3 = experiment: Cytotoxicity against human HCCLM3 cells assessed as inhibition of cell viability incubated for 24 hrs by CCK8 assay; format: functional, cell-based; conditions: HCCLM3, 24 h
Histone deacetylase 2 = Histone deacetylase 2 (Homo sapiens, UniProt Q92769); experiment: Inhibition of HDAC2 (unknown origin) preincubated for 10 mins followed by substrate addition by fluorescence based assay
Histone deacetylase 2, sequence (Q92769 whole entry): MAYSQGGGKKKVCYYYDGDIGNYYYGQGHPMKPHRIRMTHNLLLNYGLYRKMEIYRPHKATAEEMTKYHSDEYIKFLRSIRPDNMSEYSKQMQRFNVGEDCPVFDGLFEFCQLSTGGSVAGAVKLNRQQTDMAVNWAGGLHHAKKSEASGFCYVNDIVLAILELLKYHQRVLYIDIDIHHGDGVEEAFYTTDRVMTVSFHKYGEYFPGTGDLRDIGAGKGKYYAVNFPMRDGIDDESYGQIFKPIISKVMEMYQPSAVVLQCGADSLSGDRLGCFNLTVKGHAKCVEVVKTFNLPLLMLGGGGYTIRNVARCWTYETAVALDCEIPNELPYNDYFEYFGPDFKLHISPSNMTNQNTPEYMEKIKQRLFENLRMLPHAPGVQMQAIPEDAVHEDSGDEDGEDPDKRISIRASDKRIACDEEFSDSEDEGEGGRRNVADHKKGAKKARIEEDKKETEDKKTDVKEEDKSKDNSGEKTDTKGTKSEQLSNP

RPMI-8226 [17] = experiment: Induction of apoptosis in human RPMI-8226 cells assessed as early apoptotic cells at 2.5 uM incubated for 24 hrs by Annexin V-FITC/PI staining based flow cytometry (reference value: 5.34 %); format: functional
[18] = Toxicity in Balb/c nude mouse xenografted with human RPMI-8226 cells assessed as body weight loss at 10 to 40 mg/kg, po qd for 21 days administered consecutively; format: organism-based; conditions: in vivo, 504 h, dose 10-40 mg/kg, time 21 day
Histone deacetylase 1 = Histone deacetylase 1 (Homo sapiens, UniProt Q13547); experiment: Inhibition of HDAC1 (unknown origin) preincubated for 10 mins followed by substrate addition measured for 1 hr by fluorescence based assay
Histone deacetylase 1, sequence (Q13547 whole entry): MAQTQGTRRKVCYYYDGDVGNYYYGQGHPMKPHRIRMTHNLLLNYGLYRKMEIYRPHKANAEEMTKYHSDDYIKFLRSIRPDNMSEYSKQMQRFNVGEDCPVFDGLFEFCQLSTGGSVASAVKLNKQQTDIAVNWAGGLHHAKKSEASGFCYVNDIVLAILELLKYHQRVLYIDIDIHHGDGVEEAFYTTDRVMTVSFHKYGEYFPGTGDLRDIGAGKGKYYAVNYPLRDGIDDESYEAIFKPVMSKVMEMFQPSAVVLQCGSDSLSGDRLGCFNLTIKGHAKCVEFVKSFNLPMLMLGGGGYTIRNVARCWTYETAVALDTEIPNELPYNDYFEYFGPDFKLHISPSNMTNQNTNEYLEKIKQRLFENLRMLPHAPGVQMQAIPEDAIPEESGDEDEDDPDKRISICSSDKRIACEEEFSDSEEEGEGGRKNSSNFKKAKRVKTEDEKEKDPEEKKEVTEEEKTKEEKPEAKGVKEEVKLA

Histone deacetylase 3 = Histone deacetylase 3 (Homo sapiens, UniProt O15379); experiment: Inhibition of HDAC3 (unknown origin) preincubated for 10 mins followed by substrate addition by fluorescence based assay
Histone deacetylase 3, sequence (O15379 whole entry): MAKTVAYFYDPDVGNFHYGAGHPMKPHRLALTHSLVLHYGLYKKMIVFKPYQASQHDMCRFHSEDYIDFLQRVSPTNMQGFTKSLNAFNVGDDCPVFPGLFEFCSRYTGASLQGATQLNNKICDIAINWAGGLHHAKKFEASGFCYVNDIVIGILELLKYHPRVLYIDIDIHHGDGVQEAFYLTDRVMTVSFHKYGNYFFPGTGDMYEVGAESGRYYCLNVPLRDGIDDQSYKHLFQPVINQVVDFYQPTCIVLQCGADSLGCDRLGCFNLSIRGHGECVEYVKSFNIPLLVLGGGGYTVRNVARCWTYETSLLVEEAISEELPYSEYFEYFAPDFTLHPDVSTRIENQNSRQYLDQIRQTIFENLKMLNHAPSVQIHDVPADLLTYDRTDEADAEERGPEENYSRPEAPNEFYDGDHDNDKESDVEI

RPMI-8226 [19] = experiment: Induction of apoptosis in human RPMI-8226 cells assessed as late apoptotic cells at 2.5 uM incubated for 24 hrs by Annexin V-FITC/PI staining based flow cytometry (reference value: 2.78 %); format: functional
[20] = AUC (0 to t) in mouse at 10 mg/kg, po; format: ADME, organism-based; conditions: in vivo
RPMI-8226 [21] = experiment: Antitumor activity against human RPMI-8226 cells xenografted in Balb/c nude mouse assessed as reduction in tumor volume at 10 to 40 mg/kg, po qd for 21 days administered consecutively; format: functional, organism-based; conditions: dose 10-40 mg/kg, time 21.0 day
RPMI-8226 [22] = experiment: Induction of cell cycle arrest at S phase in human RPMI-8226 cells at 0.5 uM incubated for 24 hrs by PI staining based flow cytometry (reference value: 58.5 %); format: functional
RPMI-8226 [23] = experiment: cells; conditions: Homo sapiens, RPMI-8226, 24 h
RPMI-8226 [24] = experiment: Induction of apoptosis in human RPMI-8226 cells assessed as viable cells at 0.1 uM incubated for 24 hrs by Annexin V-FITC/PI staining based flow cytometry (reference value: 90.98 %); format: functional; conditions: read-out: Activity
HCT-116 = experiment: Cytotoxicity against human HCT-116 cells assessed as inhibition of cell viability incubated for 24 hrs by CCK8 assay; format: functional, cell-based; conditions: HCT-116, 24 h

- clearance [1]: 82.9 mL/min/kg
- IC50 (Histone deacetylase 5): 2120 nM
- Tmax [5]: 20 min
- half-life [7]: 41.9 min
- half-life [11]: 20 min
- IC50 (Histone deacetylase 8): 867 nM
- IC50 (Histone deacetylase 4): 1930 nM
- IC50 (Histone deacetylase 2): 1790 nM
- IC50 (Histone deacetylase 1): 1130 nM
- IC50 (Histone deacetylase 3): 1840 nM
- AUC(0-t) [20]: 52.1 ng·h/mL
- IC50 (RPMI-8226 [23]): 528 nM
SMILES: Cn1c([C@@H](Cc2ccccc2)NCc2ccccc2)nc2cc(C(=O)NO)ccc21
- viability at 0.5 µM (RPMI-8226 [2]): 81.2%
- IC50 (SGC-7901): > 50000 nM
- Activity (RPMI-8226 [3]): 18.2%
- Activity (RPMI-8226 [4]): 0.53%
- Activity (RPMI-8226 [6]): 0.26%
- Activity (RPMI-8226 [8]): inactive
- Activity (RPMI-8226 [9]): 4.24%
- Activity (RPMI-8226 [10]): 14.04%
- Activity (RPMI-8226 [12]): 12.79%
- Activity (RPMI-8226 [13]): Active
- viability at 2.5 µM (RPMI-8226 [14]): 76.5%
- Activity (RPMI-8226 [15]): inactive
- Activity [16]: Non-Toxic
- IC50 (HCCLM3): > 50000 nM
- Activity (RPMI-8226 [17]): 18.97%
- Activity [18]: Non-Toxic
- Activity (RPMI-8226 [19]): 4.26%
- Activity (RPMI-8226 [21]): Active
- Activity (RPMI-8226 [22]): 43.3%
- viability at 0.1 µM (RPMI-8226 [24]): 82.5%
- IC50 (HCT-116): 15200 nM

Reference: ChEMBL document CHEMBL5634123, “Design and synthesis of 1H-benzo[d]imidazole selective HDAC6 inhibitors with potential therapy for multiple myeloma” (Eur J Med Chem, 2023)
